For series [1], the target named is T1, Histone deacetylase 1 (Homo sapiens, UniProt Q13547). Description: Inhibition of full length human recombinant C-terminal FLAG/His-tagged HDAC1 expressed in baculovirus infected sf9 cells using fluorogenic HDAC substrate 3 after 30 mins by fluorescence assay.
In the next series the target is Histone deacetylase 2 (Homo sapiens, UniProt Q92769). Nature of the series: Inhibition of full length human recombinant C-terminal His-tagged HDAC2 expressed in baculovirus infected sf9 cells using fluorogenic HDAC substrate 3 after 30 mins by fluorescence assay.
Chain of Histone deacetylase 2 (Q92769 whole entry, the tested form may be a part): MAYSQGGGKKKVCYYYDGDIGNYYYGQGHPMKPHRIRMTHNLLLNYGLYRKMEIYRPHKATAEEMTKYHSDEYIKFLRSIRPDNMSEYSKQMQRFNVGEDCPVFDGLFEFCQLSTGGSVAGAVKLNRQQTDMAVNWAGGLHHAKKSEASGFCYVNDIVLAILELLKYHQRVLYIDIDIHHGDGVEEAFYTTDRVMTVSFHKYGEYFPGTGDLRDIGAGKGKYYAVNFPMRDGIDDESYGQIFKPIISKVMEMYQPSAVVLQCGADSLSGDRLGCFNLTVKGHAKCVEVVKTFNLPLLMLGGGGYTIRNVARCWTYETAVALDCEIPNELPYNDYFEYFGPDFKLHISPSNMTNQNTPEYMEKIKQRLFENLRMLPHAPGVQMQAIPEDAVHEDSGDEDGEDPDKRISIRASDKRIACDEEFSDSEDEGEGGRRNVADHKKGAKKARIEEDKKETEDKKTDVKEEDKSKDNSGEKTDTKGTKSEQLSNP
For series [2], the target named is Histone deacetylase 3/Nuclear receptor corepressor 2 (HDAC3/NCoR2) (Homo sapiens, UniProt O15379). Nature of the series: Inhibition of full length human recombinant C-terminal His-tagged HDAC3/N-terminal GST-tagged NCOR2 (95 to 489 residues) expressed in baculovirus infected sf9 cells using fluorogenic HDAC substrate 3 after 30 mins by fluorescence assay.
Chain of Histone deacetylase 3/Nuclear receptor corepressor 2 (HDAC3/NCoR2) (O15379 whole entry, the tested form may be a part): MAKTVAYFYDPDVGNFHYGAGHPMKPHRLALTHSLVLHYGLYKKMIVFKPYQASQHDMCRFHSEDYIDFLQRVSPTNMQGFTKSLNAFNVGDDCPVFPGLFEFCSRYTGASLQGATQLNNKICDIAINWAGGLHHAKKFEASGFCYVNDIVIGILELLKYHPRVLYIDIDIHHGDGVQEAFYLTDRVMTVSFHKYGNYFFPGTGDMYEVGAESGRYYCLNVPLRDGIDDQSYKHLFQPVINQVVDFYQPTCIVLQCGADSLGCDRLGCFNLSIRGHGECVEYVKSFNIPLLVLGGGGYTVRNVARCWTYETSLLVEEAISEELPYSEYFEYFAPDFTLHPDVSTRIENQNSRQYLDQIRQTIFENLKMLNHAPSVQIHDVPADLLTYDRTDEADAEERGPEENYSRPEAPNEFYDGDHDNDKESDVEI
Chain of Histone deacetylase 3/Nuclear receptor corepressor 2 (HDAC3/NCoR2) (Q9Y618 whole entry, further chain, the tested form may be a part): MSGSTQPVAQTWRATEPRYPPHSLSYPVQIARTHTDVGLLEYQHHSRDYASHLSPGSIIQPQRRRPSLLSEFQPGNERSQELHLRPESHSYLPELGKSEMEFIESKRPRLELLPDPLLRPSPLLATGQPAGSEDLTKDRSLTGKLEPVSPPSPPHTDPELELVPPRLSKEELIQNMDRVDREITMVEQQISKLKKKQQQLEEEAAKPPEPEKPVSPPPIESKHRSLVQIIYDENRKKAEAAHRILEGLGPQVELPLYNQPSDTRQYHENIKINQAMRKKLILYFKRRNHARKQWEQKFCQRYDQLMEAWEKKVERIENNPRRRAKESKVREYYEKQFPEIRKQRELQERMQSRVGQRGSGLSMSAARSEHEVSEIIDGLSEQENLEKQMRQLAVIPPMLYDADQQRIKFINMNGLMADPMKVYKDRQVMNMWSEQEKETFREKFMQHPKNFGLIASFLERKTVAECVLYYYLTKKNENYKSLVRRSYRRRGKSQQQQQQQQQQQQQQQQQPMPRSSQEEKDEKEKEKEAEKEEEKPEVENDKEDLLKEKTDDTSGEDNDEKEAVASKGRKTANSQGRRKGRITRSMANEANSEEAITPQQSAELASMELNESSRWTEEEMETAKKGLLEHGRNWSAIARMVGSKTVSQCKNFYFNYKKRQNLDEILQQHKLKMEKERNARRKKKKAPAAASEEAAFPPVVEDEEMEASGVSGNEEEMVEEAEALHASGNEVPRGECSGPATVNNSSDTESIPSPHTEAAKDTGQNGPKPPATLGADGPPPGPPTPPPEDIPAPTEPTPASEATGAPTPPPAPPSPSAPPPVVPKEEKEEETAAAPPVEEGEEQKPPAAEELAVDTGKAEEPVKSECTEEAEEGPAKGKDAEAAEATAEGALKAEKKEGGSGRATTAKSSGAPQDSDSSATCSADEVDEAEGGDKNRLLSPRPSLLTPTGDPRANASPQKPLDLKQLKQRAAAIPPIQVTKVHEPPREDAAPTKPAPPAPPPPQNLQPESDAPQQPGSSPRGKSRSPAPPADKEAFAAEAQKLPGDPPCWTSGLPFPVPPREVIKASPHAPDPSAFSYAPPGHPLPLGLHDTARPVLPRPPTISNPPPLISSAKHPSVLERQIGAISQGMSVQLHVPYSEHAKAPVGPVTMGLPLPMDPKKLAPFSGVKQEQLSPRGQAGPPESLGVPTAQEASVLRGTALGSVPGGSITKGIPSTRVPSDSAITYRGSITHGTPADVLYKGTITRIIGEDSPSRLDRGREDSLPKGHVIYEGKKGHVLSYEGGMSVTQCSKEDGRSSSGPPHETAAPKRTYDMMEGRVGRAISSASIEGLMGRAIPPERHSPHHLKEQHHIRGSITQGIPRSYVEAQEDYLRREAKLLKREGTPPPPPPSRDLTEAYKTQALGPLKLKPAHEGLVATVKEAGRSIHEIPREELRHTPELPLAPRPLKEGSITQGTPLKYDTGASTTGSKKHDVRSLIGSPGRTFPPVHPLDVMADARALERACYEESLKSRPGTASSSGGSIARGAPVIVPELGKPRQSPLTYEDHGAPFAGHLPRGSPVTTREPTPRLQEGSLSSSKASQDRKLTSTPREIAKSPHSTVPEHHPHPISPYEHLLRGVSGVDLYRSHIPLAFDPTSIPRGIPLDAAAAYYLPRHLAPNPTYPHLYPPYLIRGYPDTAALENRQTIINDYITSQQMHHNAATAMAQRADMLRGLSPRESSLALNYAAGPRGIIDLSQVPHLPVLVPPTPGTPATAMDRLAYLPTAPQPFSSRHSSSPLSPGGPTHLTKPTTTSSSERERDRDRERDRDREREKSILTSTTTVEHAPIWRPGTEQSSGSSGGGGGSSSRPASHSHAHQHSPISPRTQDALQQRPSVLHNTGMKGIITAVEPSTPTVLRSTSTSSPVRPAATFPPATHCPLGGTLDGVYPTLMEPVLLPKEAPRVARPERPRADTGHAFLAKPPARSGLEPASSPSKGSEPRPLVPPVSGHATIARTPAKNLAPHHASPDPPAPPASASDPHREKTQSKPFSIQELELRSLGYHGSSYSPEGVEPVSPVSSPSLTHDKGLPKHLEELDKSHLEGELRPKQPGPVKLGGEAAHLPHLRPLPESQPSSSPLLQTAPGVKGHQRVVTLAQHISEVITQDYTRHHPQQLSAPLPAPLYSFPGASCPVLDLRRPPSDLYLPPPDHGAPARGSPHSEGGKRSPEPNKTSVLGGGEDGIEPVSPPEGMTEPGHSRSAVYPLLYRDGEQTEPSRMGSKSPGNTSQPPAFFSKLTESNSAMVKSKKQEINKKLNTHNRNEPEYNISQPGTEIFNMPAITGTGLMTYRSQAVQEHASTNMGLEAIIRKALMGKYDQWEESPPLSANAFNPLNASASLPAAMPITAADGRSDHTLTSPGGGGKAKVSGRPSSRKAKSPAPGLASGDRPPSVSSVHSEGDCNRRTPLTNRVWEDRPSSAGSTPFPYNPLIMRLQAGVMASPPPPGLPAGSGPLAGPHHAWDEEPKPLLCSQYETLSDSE
In series [3] the target is T2, Protein deacetylase HDAC6 (Homo sapiens, UniProt Q9UBN7).
T2 sequence (Q9UBN7 whole entry): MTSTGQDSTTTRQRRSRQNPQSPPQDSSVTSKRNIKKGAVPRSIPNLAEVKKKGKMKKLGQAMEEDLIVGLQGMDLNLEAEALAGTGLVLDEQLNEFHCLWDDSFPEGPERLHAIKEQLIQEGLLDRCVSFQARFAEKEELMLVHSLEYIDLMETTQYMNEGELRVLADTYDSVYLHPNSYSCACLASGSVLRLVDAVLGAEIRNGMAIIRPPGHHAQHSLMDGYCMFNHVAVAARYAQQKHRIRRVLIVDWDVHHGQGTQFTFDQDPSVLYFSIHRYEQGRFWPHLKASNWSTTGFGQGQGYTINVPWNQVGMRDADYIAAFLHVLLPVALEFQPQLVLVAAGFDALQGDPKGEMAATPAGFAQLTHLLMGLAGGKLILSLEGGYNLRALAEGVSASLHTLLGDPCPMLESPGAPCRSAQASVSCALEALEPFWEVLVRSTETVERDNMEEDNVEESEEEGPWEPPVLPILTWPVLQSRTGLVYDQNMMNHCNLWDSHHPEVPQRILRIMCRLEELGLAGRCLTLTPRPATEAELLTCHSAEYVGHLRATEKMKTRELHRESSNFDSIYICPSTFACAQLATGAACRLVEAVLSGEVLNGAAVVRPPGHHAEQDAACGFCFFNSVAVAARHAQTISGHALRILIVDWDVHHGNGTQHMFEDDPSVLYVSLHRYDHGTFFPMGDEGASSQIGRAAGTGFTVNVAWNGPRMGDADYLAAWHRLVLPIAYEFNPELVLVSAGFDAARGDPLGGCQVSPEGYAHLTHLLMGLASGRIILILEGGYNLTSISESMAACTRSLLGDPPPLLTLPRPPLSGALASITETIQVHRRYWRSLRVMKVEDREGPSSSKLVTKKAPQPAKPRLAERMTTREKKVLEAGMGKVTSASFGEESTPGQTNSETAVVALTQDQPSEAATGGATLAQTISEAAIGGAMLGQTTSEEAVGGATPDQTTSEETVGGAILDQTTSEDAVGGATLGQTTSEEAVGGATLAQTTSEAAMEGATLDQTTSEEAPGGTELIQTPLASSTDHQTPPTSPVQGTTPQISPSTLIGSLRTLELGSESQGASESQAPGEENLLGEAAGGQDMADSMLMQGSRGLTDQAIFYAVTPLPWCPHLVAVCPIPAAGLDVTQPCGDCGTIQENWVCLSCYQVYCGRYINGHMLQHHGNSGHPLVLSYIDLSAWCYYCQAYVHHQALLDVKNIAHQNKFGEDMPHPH
Description: Inhibition of full length human recombinant N-terminal GST-tagged HDAC6 expressed in baculovirus infected sf9 cells using fluorogenic HDAC substrate 3 after 30 mins by fluorescence assay.

Series [4] concerns the target T1, Histone deacetylase 1. Description: Inhibition of full length human recombinant C-terminal FLAG/His-tagged HDAC1 expressed in baculovirus infected sf9 cells using fluorogenic HDAC substrate 3 after 4 hrs fluorescence assay.
The target of series [5] is T1, Histone deacetylase 1. Nature of the series: Inhibition of full length human recombinant C-terminal FLAG/His-tagged HDAC1 expressed in baculovirus infected sf9 cells assessed residence time preincubated fopr 2 hrs followed by dilution and subsequent fluorogenic HDAC substrate 3 addition measured at 2 mins time interval by fluorescence based jump dilution assay.
The nature of series [6]: Effective permeability of the compound at 50 uM after 18 hrs by UV spectroscopy based PAMPA. To be noted: read-out: Peff. In kind it is ADME.
In series [7] the target is Protein deacetylase HDAC6 (Mus musculus) (UniProt Q9Z2V5). Description: Inhibition of HDAC6 in Tg2576 mouse primary neurons assessed as reduction in human APP protein level at 100 nM treated for 2 days measured at 24 hrs post last dose by Western blot analysis relative to control. (In western blotting, separated proteins are transferred to a membrane and probed.)
Chain of Protein deacetylase HDAC6 (Mus musculus) (Q9Z2V5 whole entry): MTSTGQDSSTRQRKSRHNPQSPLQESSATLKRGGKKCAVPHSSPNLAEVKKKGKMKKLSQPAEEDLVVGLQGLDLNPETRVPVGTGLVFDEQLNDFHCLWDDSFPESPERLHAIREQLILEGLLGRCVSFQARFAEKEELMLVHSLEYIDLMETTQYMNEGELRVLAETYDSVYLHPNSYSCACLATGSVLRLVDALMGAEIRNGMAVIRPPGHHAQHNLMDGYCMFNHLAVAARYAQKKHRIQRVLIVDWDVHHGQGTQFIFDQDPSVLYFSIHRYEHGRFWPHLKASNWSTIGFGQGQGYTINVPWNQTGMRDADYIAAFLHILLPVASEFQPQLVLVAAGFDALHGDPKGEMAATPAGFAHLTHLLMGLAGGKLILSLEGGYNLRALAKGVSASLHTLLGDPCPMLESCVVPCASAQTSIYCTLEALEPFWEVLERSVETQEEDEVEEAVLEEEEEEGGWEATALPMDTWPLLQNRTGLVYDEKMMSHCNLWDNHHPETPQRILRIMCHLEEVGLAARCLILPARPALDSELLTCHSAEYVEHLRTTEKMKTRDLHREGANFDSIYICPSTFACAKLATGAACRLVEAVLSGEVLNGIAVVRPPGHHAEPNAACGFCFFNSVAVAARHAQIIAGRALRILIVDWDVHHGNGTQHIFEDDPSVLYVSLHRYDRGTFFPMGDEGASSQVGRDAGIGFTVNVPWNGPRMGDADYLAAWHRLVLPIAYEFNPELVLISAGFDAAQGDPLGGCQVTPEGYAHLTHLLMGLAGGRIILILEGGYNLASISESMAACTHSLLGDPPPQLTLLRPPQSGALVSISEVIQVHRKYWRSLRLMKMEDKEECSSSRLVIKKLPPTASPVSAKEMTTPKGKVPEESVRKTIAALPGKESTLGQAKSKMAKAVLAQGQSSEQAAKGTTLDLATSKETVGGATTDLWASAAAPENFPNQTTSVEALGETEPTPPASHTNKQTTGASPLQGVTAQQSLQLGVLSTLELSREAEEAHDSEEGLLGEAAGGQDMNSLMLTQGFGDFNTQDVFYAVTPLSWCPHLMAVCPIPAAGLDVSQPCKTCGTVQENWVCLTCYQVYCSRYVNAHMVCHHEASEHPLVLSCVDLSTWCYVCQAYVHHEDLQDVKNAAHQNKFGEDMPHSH
Series [8] has the same target. Description: Inhibition of HDAC6 in Tg2576 mouse primary neurons assessed as reduction in phosphorylated tau protein level at 100 nM treated for 2 days measured at 24 hrs post last dose by Western blot analysis relative to control.
Series [9] can be described thus: Cytotoxicity against Tg2576 mouse primary neurons after 72 hrs by ATP luminescence assay. In kind it is cell-based, Neuron. The note with it: read-out: LC50.
The target of another series is CYP2C9 (Homo sapiens, UniProt P11712). Description: Inhibition of CYP2C9 in human liver microsomes at 10 uM after 10 mins in presence of NADPH by LC-MS/MS analysis relative to control. In kind it is ADME.
In a further series the target is CYP3A4 (Homo sapiens, UniProt P08684). Nature of the series: Inhibition of CYP3A4 in human liver microsomes at 10 uM after 10 mins in presence of NADPH by LC-MS/MS analysis relative to control. In kind it is ADME. A general note: Liver microsomes are vesicles of endoplasmic reticulum, rich in cytochrome P450 enzymes.
Series [10] is described as follows: Half life in mouse liver microsomes at 1 uM preincubated for 10 mins followed by NADPH addition measured up to 60 mins by LC-MS/MS analysis. In kind it is ADME, microsome.
Series [11] addresses High affinity cGMP-specific 3',5'-cyclic phosphodiesterase 9A (Homo sapiens, UniProt O76083). Nature of the series: Inhibition of full length human recombinant N-terminal GST-tagged PDE9A2 expressed in baculovirus infected sf9 cells using cGMP as substrate after 30 mins by fluorescence assay.
For series [12], the target named is Cone cGMP-specific 3',5'-cyclic phosphodiesterase subunit alpha' (Homo sapiens, UniProt P51160). Nature of the series: Inhibition of PDE6C (unknown origin) using FAM-cGMP as substrate by fluorescence assay.
The target in another series is Histone deacetylase 8 (Homo sapiens, UniProt Q9BY41). Nature of the series: Inhibition of human HDAC8.
The next series addresses Histone deacetylase 5 (Homo sapiens, UniProt Q9UQL6). Description: Inhibition of human HDAC5.
Another series has as its target Histone deacetylase 4 (Homo sapiens, UniProt P56524). Description: Inhibition of human HDAC4.
The target in another series is Histone deacetylase 9 (Homo sapiens, UniProt Q9UKV0). Description: Inhibition of human HDAC9.
The next series deals with Mus musculus. Description: In vivo inhibition of PDE5 in mouse assessed as increase in pCREB-Ser133 level in hippocampus at 40 mg/kg, ip measured after 1 hr by Western blot analysis. The class given is functional. Also on record: scale not given: the % may be the effect or the level left.
A short description of series [13]: cells. To be noted: Homo sapiens, SH-SY5Y, 2 h, read-out: FC.
The nature of series [14]: cells. To be noted: Homo sapiens, SH-SY5Y, 2 h, read-out: FC. The source holds these as a separate data set.
The nature of series [15]: cells. The note with it: Homo sapiens, SH-SY5Y, 2 h, read-out: FC. This is another data set of the same source.

One compound from ChEMBL document CHEMBL4196089, “Design, synthesis, biological evaluation and in vivo testing of dual phosphodiesterase 5 (PDE5) and histone deacetylase 6 (HDAC6)-selective inhibitors for the treatment of Alzheimer's disease” (Eur J Med Chem, 2018) can be followed below.

Molecules are shown by their SMILES.

T1 sequence (Q13547 whole entry): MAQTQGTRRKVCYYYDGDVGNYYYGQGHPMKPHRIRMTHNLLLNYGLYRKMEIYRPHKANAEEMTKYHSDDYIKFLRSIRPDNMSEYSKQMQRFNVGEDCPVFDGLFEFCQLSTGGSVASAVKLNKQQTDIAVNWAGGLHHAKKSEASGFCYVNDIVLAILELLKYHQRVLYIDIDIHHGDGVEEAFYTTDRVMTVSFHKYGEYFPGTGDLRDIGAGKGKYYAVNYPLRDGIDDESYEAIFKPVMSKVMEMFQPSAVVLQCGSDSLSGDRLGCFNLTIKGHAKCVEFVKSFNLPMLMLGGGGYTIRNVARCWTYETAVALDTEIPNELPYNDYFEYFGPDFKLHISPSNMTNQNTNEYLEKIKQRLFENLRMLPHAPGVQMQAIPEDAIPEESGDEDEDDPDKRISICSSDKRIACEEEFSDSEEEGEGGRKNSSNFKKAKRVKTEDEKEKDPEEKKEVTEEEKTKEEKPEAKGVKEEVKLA

`CCCc1nn(C)c2c(=O)[nH]c(-c3cc(Cc4ccc(C(=O)NO)s4)ccc3OCC)nc12`: the IC50 at Histone deacetylase 1 [1] was 345 nM; on Histone deacetylase 2, 3720 nM; in series [2], 2090 nM; in series [3], 15 nM; at Histone deacetylase 1 [4] it was 841 nM; in series [11], greater than 10000 nM. Besides, the IC50 in [12] was 1.4 nM; on Histone deacetylase 8 it was greater than 10000 nM; at Histone deacetylase 5, greater than 10000 nM; against Histone deacetylase 4, greater than 10000 nM; against Histone deacetylase 9, greater than 10000 nM. Moreover, the residence time on Histone deacetylase 1 [5] came out at 15.5 min. In addition, the Papp at 18 h, 50 µM in series [6] is 2.91 ×10⁻⁶ cm/s. Besides, the values for the inhibition in series [7] and in series [8] were 55% and 30%, respectively. For the same compound, the CC50 at 72 h in series [9] was determined as 46300 nM. Further, the inhibition at 10 min, 10 µM on CYP2C9 is less than 50%; on CYP3A4, 23.4%. Besides, the half-life at 1 µM in series [10] came to 5.2 min. Also, the Activity with Mus musculus is 48%. Moreover, in “cells [13]”, the fold induction at 0.1 µM was 1.8. For the same compound, in the series “cells [14]”, the fold induction at 0.5 µM stood at 8.2. In the series “cells [15]”, the fold induction at 1 µM worked out at 12.1.

Broadly, the IC50 is the midpoint of a concentration-inhibition curve. Broadly, the inhibition is the percentage by which the read-out fell short of the control. As usually defined, the half-life is the time in which the quantity being followed falls by half.
